Patent US20210205292A1, “INHIBITORS OF CREB-CBP INTERACTION FOR TREATMENT OF LEUKEMIA” (The Board of Trustees of the Leland Stanford Junior …, priority 2016, published 2021)

Test system: HL-60 cells
Experiment: Flow cytometry of apoptosis (c-PARP+, aqua amine+) in HL-60 cells
Type: cell-based, human
Conditions: Homo sapiens, 72 hours, 2 mM, read-out: cells apoptotic or non-viable
Protocol: AML cell lines were purchased from ATCC and maintained with IMDM (Gibco) supplemented with 10% FBS (Fisher Scientific) and 1% PSG (Gibco). Cells were plated at a density of 2-4×10^5 cells/ml, and treated with various doses of Compound A in 0.1% DMSO or 0.1% DMSO alone. Cell counts and viability were determined using the Vi-CELL XR Cell Viability Analyzer (Beckman Coulter). HL-60 and KG-1 cells overexpressing CREB or CBP were generated using lentiviral gene delivery with subsequent puromycin selection and FACs sorting for GFP. CREB knockdown was achieved by infecting cells with a lentivirus expressing the shRNA sequence 5′-[…]-3′ (SEQ ID NO:). For chemotherapy combination experiments, combination index values were calculated using median effects analysis on Calcusyn software. Human patient bone marrow samples were cultured in DMEM plus 20% FBS and 1×PSG, supplemented with recombinant GM-CSF (20 ng/ml), G-CSF (20 ng/ml), SCF (50 ng/ml), IL-3 (20 ng/ml), and IL-6 (10 ng/ml). Cells were plated at a concentration of 1×10^5 cells/ml in a 12-well plate. Vehicle (0.1% DMSO) or Compound A (2 μM) was added for up to 72 hours. All samples contained >85% AML blasts and were not sorted prior to performing experiments. […] Single cell suspensions of bone marrow culture were subsequently analyzed on a D×P10 flow cytometer (Cytek). […]

Structure (SMILES): N#Cc1ccc(NC(=O)c2cc3ccccc3cc2O)cc1 [Compound A, N-(4-cyanophenyl)-3-hydroxy-2-naphthamide]
- cytotoxicity at 2000 µM: > 95%
